Measured values taken from PubChem BioAssay (NCI).
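Growth conditions: 96-well plates. Treatment: test compound, 48 hours, 5 concentrations. Analysis: linear interpolation between bracketing concentrations; unreached endpoints set to highest concentration. Abbreviation: GI50, concentration required for 50% inhibition of growth. At the TGI there is no net growth.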

How the values were obtained:
Experiment in all cases: NCI tumour cell line growth inhibition, 48 h
[1] = tested on: A498 renal
[2] = tested on: CAKI-1 renal
[3] = tested on: CCRF-CEM leukemia
[4] = tested on: HCT-116 colon
[5] = tested on: NCI-H23 lung
[6] = tested on: OVCAR-8 ovarian
[7] = tested on: SF-295 CNS
[8] = tested on: SK-MEL-2 melanoma
[9] = tested on: SNB-19 CNS
[10] = tested on: SW-620 colon

SMILES | TGI [1] | TGI [2] | TGI [3] | TGI [4] | TGI [5] | TGI [6] | TGI [7] | TGI [8] | TGI [9] | TGI [10] | GI50 [1] | GI50 [2] | GI50 [3] | GI50 [4] | GI50 [5] | GI50 [6] | GI50 [7] | GI50 [8] | GI50 [9] | GI50 [10]
COc1cccc2c1C1=CC(=O)CCC1C(C)(C)O2 (centres undefined) | > 100 µM | > 100 µM | > 100 µM | > 100 µM | > 100 µM | > 100 µM | > 100 µM | > 100 µM | > 100 µM | 27.3 µM |  |  |  |  |  |  |  |  |  | 
O=[N+]([O-])/C=C\c1ccc2c(c1)OCO2 | 8.14 µM | 7.36 µM | 25 µM | 2.95 µM | 7.38 µM | 10.4 µM | 26.5 µM | 4.99 µM | 30.8 µM | 4.91 µM | 1.37 µM | 1.69 µM | 3.9 µM | 1.42 µM | 2.52 µM | 2.86 µM | 11.5 µM | 2.2 µM | 13.1 µM | 2.07 µM
CN(C)CCNc1cccc2sc3ccc(O)cc3c(=O)c12 | 24.1 µM | 13.3 µM | 6.61 µM | 9.68 µM | 17 µM | 9.78 µM | 22.3 µM |  | 17.4 µM | 3.44 µM | 10.8 µM | 2.22 µM | 0.777 µM | 2.12 µM | 4.03 µM | 2.16 µM | 6.53 µM |  | 4.04 µM | 1.16 µM
Cn1cc(NC(=O)c2cc(NC(=O)CCCCCC(=O)Nc3cc(C(=O)Nc4cc(C(=O)NCCC(=N)N)n(C)c4)n(C)c3)cn2C)cc1C(=O)NCCC(=N)N | > 100 µM | > 100 µM | > 100 µM | > 100 µM | > 100 µM | > 100 µM | > 100 µM |  | > 100 µM | > 100 µM |  |  |  |  |  |  |  |  |  | 
CCOC(=O)C(=O)Nc1c(C)cccc1CC |  | > 100 µM | > 100 µM | > 100 µM | > 100 µM | > 100 µM | > 100 µM | > 100 µM | > 100 µM | > 100 µM |  |  |  |  |  |  |  |  |  | 
COc1cc(C(C#N)NNC(=O)c2ccccc2O)ccc1O (centres undefined) |  | > 100 µM | > 100 µM | > 100 µM | 10.4 µM | > 100 µM | > 100 µM | > 100 µM |  | > 100 µM |  |  |  |  |  |  |  |  |  | 
O=C(c1ccco1)N(C(=S)N1CCN(c2ccccc2)CC1)c1ccccc1 |  | > 100 µM | > 100 µM | > 100 µM | > 100 µM | > 100 µM | > 100 µM | > 100 µM | > 100 µM | > 100 µM |  |  |  |  |  |  |  |  |  | 
CCOC(OC1=C(C#N)CCC1)C(CC)[Se]c1ccccc1 (centres undefined) | > 100 µM | > 100 µM | > 100 µM | 57.6 µM | 25.1 µM | 65.2 µM | 52.7 µM | 80.8 µM | > 100 µM |  |  |  |  |  |  |  |  |  |  | 
Cn1nnnc1[N-]Cc1ccccc1.[Au+].c1ccc([PH+](c2ccccc2)c2ccccc2)cc1 |  | 4.99 µM | 3.95 µM | 13 µM | 10.4 µM | 10.1 µM | 22.8 µM | 9.45 µM | 13.1 µM | 4.92 µM |  | 2.29 µM | 0.752 µM | 3.88 µM | 3.35 µM | 3.13 µM | 4.45 µM | 2.98 µM | 3.61 µM | 2.19 µM
c1cc(-c2sc(-c3ccncc3)c(-c3ccncc3)c2-c2ccncc2)ccn1 | 26.7 µM | > 100 µM |  | 28.5 µM | 31.9 µM | > 100 µM | 41.6 µM | 48.1 µM | 55.9 µM | 59.5 µM |  |  |  |  |  |  |  |  |  | 
N#CC1C(N)=NNC1c1ccc(-c2ccc(-c3nc4ccccc4o3)cc2)o1 (centres undefined) |  | 44.2 µM |  | > 100 µM |  | 88 µM | > 100 µM | > 100 µM | > 100 µM | > 100 µM |  | 14.8 µM |  | 5.91 µM |  | 15.3 µM | 66.4 µM | 37.5 µM | > 100 µM | 74.9 µM
OCC1OC(N2C=C(c3nc4ccccc4s3)C3C=CC=CC32)C(O)C1O (centres undefined) | 17.7 µM | 22 µM |  | > 50 µM | 28.7 µM | 29.5 µM | 43.6 µM | > 50 µM | > 50 µM | > 50 µM | 7.91 µM | 9.32 µM |  | 5.21 µM | 8.89 µM | 11.4 µM | 13.1 µM | 29.7 µM | 18.9 µM | 9.82 µM
O=c1c(OC/C(=N/O)c2ccccc2)c(-c2ccccc2)oc2ccccc12 |  | 40.8 µM | 6.47 µM |  | > 50 µM | > 50 µM | 23.2 µM | > 50 µM | > 50 µM | 25.4 µM |  | 9.52 µM | 0.461 µM |  | 18.1 µM | 21.7 µM | 11.2 µM | 16.4 µM | 15.9 µM | 11.4 µM
O=C1c2cccc3cc([N+](=O)[O-])cc(c23)C(=O)N1CCCN1CCN(CCCN2C(=O)c3cccc4cc([N+](=O)[O-])cc(c34)C2=O)CC1 | 3.87 µM |  | > 100 µM | 1.34 µM | 7.64 µM | > 100 µM | 12.4 µM | 5.34 µM | > 100 µM | > 100 µM |  |  |  |  |  |  |  |  |  | 
COc1ccc(/C=[N+](\[O-])[C@H](COCc2ccccc2)c2ccccc2)cc1 | > 100 µM |  | > 100 µM | > 100 µM | > 100 µM | > 100 µM | > 100 µM | > 100 µM | > 100 µM | > 100 µM |  |  |  |  |  |  |  |  |  | 
c1cncc(C2c3[nH]c4ccccc4c3CCN2CCN2CCCCC2)c1 (centres undefined) | > 100 µM | > 100 µM | > 100 µM | > 100 µM | > 100 µM | > 100 µM | > 100 µM |  | > 100 µM | > 100 µM |  |  |  |  |  |  |  |  |  | 
CCOC(=O)/C(=C\c1ccc(CO)o1)P(=O)(OCC)OCC | > 100 µM | > 100 µM |  | 43.8 µM | 57.8 µM |  | > 100 µM | 92.2 µM | > 100 µM | 60.9 µM |  |  |  |  |  |  |  |  |  | 
CCOC(=O)c1c2ccc(/C=C/C(=O)OC)ccc-2c(C(=O)OCC)c1N | 49.4 µM | > 100 µM | > 100 µM |  | > 100 µM |  | > 100 µM | > 100 µM | > 100 µM | > 100 µM |  |  |  |  |  |  |  |  |  | 
CN(C)CN1C(=O)S/C(=C2\C(=O)N(CN(C)C)c3ccccc32)C1=O | > 100 µM | 97.9 µM |  | > 100 µM | 49.2 µM | > 100 µM | > 100 µM | > 100 µM | > 100 µM | 93.1 µM |  |  |  |  |  |  |  |  |  | 
